Data reported in PMC9127750, “Structure-based design of CDC42 effector interaction inhibitors for the treatment of cancer” (Cell reports, 2022).
Where “and” joins values, the source holds several entries; their conditions need not be identical. Equal entries are not always repeated.

System: WM3248 melanoma cells, 486 antibodies
Assay: Reverse phase protein arrays (RPPA)
Type: cell-based, Human
From the text: Pellets were snap frozen in liquid nitrogen and shipped to MD Anderson Cancer Center core RPPA facility for RPPA analysis (Table S5). Three biological replicates for each sample were generated.
Nomenclatures on the RPPA heatmaps: name_of_antibody.species_of_antibody.status_of_antibody. V - antibody validated; C - validation of antibody in progress; Q - antibody nonspecific; E – under evaluation; antibodies raised in M - mouse, G - goat, R - rabbit, or T - rat.

[1] = level 5 normalized to 0, mean of 3
[2] = level 5 normalized to 0, single replicates

CN(C)c1cccc(Nc2cc(-c3ccccc3)nc(C3CCNCC3)n2)c1 [ARN22089, N1,N1-dimethyl-N3-(6-phenyl-2-(piperidin-4-yl)pyrimidin-4-yl)benzene-1,3-diamine]
S6 phosphorylation at serine 235/236 and 240/244 (RPPA) (WM3248, 6 h, 10 and 20 μM): inhibit S6 phosphorylation | number of proteins with significantly influenced phosphorylation (RPPA) (WM3248, 6 h, 10 and/or 20 μM): 10 | number of proteins with significantly influenced abundance (RPPA) (WM3248, 6 h, 10 and/or 20 μM, 486 antibodies): 38 | TSC1.R.C Norm_5 Average [1]: 1.102 | TTF1.R.V Norm_5 Average [1]: 1.049 | TUFM.R.V Norm_5 Average [1]: 0.868 | Tuberin_pT1462.R.V Norm_5 Average [1]: 0.977 | Twist.M.C Norm_5 Average [1]: 0.950 | Tyro3.R.V Norm_5 Average [1]: 1.005 | U.Histone.H2B.R.C Norm_5 Average [1]: 1.142 | UBAC1.R.V Norm_5 Average [1]: 0.993 | UBQLN4.M.C Norm_5 Average [1]: 1.016 | ULK1_pS757.R.C Norm_5 Average [1]: 1.079 | UQCRC2.M.C Norm_5 Average [1]: 0.979 | UVRAG.R.C Norm_5 Average [1]: 1.020 | VASP.R.V Norm_5 Average [1]: 0.994 | VAV1.R.C Norm_5 Average [1]: 1.019 | VEGFR.2.R.V Norm_5 Average [1]: 1.081 | VEGFR.2_pY1175.R.C Norm_5 Average [1]: 0.910 | VHL.R.C Norm_5 Average [1]: 0.932 | Vinculin.M.V Norm_5 Average [1]: 1.019 | WIPI1.R.C Norm_5 Average [1]: 1.058 | WIPI2.R.C Norm_5 Average [1]: 1.061 | WTAP.R.V Norm_5 Average [1]: 0.959 | Wee1.R.C Norm_5 Average [1]: 1.054 | Wee1_pS642.R.C Norm_5 Average [1]: 0.993 | XBP.1.G.C Norm_5 Average [1]: 0.977 | XIAP.R.C Norm_5 Average [1]: 1.035 | XPA.M.V Norm_5 Average [1]: 0.929 | XPF.R.C Norm_5 Average [1]: 0.943 | XRCC1.R.C Norm_5 Average [1]: 0.946 | YAP.R.C Norm_5 Average [1]: 0.953 | YAP_pS127.R.V Norm_5 Average [1]: 0.906 | YB1_pS102.R.V Norm_5 Average [1]: 0.961 | YES1.R.V Norm_5 Average [1]: 0.962 | YTHDF2.R.V Norm_5 Average [1]: 1.076 | YTHDF3.R.C Norm_5 Average [1]: 0.987 | ZAP.70.R.V Norm_5 Average [1]: 0.952 | ZEB1.R.V Norm_5 Average [1]: 0.892 | TSC1.R.C Norm_5_1 to Norm_5_3 [2]: 1.060 and 1.024 and 1.221 | TTF1.R.V Norm_5_1 to Norm_5_3 [2]: 1.035 and 1.145 and 0.966 | TUFM.R.V Norm_5_1 to Norm_5_3 [2]: 0.845 and 0.669 | Tuberin.R.V Norm_5_1 to Norm_5_3 [2]: 1.052 and 1.301 | Tuberin_pT1462.R.V Norm_5_1 to Norm_5_3 [2]: 0.994 and 0.956 and 0.983 | Twist.M.C Norm_5_1 to Norm_5_3 [2]: 0.898 and 0.964 and 0.990 | Tyro3.R.V Norm_5_1 to Norm_5_3 [2]: 1.008 and 1.152 and 0.855 | U.Histone.H2B.R.C Norm_5_1 to Norm_5_3 [2]: 1.497 and 1.118 and 0.811 | UBAC1.R.V Norm_5_1 to Norm_5_3 [2]: 0.966 and 1.139 and 0.875 | UBQLN4.M.C Norm_5_1 to Norm_5_3 [2]: 0.962 and 1.147 | UGT1A.M.V Norm_5_1 to Norm_5_3 [2]: 0.962 and 0.965 and 0.979 | ULK1_pS757.R.C Norm_5_1 to Norm_5_3 [2]: 0.993 and 1.063 | UQCRC2.M.C Norm_5_1 to Norm_5_3 [2]: 0.997 and 1.139 and 0.800 | UVRAG.R.C Norm_5_1 to Norm_5_3 [2]: 1.096 and 0.960 and 1.005 | VASP.R.V Norm_5_1 to Norm_5_3 [2]: 1.053 and 0.992 | VAV1.R.C Norm_5_1 to Norm_5_3 [2]: 1.027 and 0.961 | VEGFR.2.R.V Norm_5_1 to Norm_5_3 [2]: 0.985 and 1.166 | VEGFR.2_pY1175.R.C Norm_5_1 to Norm_5_3 [2]: 0.849 and 0.870 and 1.011 | VHL.EPPK1.M.C Norm_5_1 to Norm_5_3 [2]: 0.542 and 1.028 and 0.909 | VHL.R.C Norm_5_1 to Norm_5_3 [2]: 0.928 and 0.903 and 0.966 | Vinculin.M.V Norm_5_1 to Norm_5_3 [2]: 0.942 and 1.027 | WIPI1.R.C Norm_5_1 to Norm_5_3 [2]: 1.134 and 1.302 and 0.738 | WIPI2.R.C Norm_5_1 to Norm_5_3 [2]: 1.104 and 0.916 and 1.163 | WTAP.R.V Norm_5_1 to Norm_5_3 [2]: 0.932 and 0.904 | Wee1.R.C Norm_5_1 to Norm_5_3 [2]: 0.867 and 1.101 and 1.195 | Wee1_pS642.R.C Norm_5_1 to Norm_5_3 [2]: 0.917 and 0.940 and 1.121 | XBP.1.G.C Norm_5_1 to Norm_5_3 [2]: 0.957 and 1.060 and 0.914 | XIAP.R.C Norm_5_1 to Norm_5_3 [2]: 1.060 and 0.982 and 1.062 | XPA.M.V Norm_5_1 to Norm_5_3 [2]: 0.895 and 0.876 and 1.017 | XPF.R.C Norm_5_1 to Norm_5_3 [2]: 0.932 and 0.922 and 0.975 | XRCC1.R.C Norm_5_1 to Norm_5_3 [2]: 0.894 and 1.030 and 0.916 | YAP.R.C Norm_5_1 to Norm_5_3 [2]: 0.937 and 0.945 and 0.977 | YAP_pS127.R.V Norm_5_1 to Norm_5_3 [2]: 0.985 and 0.903 and 0.830 | YB1_pS102.R.V Norm_5_1 to Norm_5_3 [2]: 0.906 | YES1.R.V Norm_5_1 to Norm_5_3 [2]: 0.963 and 1.014 and 0.910 | YTHDF2.R.V Norm_5_1 to Norm_5_3 [2]: 1.138 and 1.217 and 0.872 | YTHDF3.R.C Norm_5_1 to Norm_5_3 [2]: 1.049 and 0.875 | ZAP.70.R.V Norm_5_1 to Norm_5_3 [2]: 0.889 and 1.054 | ZEB1.R.V Norm_5_1 to Norm_5_3 [2]: 0.816 and 0.893 and 0.967 | HLA.DQA1.R.V Norm_5 Average (level 5 vs 0): 0.908 | HLA.DR.DP.DQ.DX.R.C Norm_5 Average (level 5 vs 0): 0.994 | HSP27.M.C Norm_5 Average (level 5 vs 0): 0.932 | HSP27_pS82.R.V Norm_5 Average (level 5 vs 0): 1.025 | HSP60.R.V Norm_5 Average (level 5 vs 0): 1.006 | HSP70.R.C Norm_5 Average (level 5 vs 0): 1.035 | Hexokinase.I.R.C Norm_5 Average (level 5 vs 0): 1.032 | Hexokinase.II.R.V Norm_5 Average (level 5 vs 0): 1.130 | Hif.1αR.C Norm_5 Average (level 5 vs 0): 1.202 | Histone.H3.R.V Norm_5 Average (level 5 vs 0): 1.065 | Histone.H3_pS10.R.V Norm_5 Average (level 5 vs 0): 0.786 | IDO.R.C Norm_5 Average (level 5 vs 0): 1.015 | IGF1R_pY1135_Y1136.R.V Norm_5 Average (level 5 vs 0): 1.003 | IGFBP2.R.V Norm_5 Average (level 5 vs 0): 1.029 | IGFBP3.M.V Norm_5 Average (level 5 vs 0): 0.953 | IGFRb.R.C Norm_5 Average (level 5 vs 0): 1.085 | IL.6.R.C Norm_5 Average (level 5 vs 0): 1.015 | INPP4b.R.C Norm_5 Average (level 5 vs 0): 1.023 | IR.b.R.C Norm_5 Average (level 5 vs 0): 1.051 | IRF.1.R.V Norm_5 Average (level 5 vs 0): 0.995 | IRF.3.R.V Norm_5 Average (level 5 vs 0): 0.937 | IRS1.R.V Norm_5 Average (level 5 vs 0): 1.023 | IRS2.R.C Norm_5 Average (level 5 vs 0): 0.992 | JNK2.R.V Norm_5 Average (level 5 vs 0): 1.065 | JNK_pT183_Y185.R.C Norm_5 Average (level 5 vs 0): 0.992 | Jagged1.R.V Norm_5 Average (level 5 vs 0): 0.984 | Jak2.R.V Norm_5 Average (level 5 vs 0): 1.003 | KEAP1.R.V Norm_5 Average (level 5 vs 0): 0.955 | LAD1.R.V Norm_5 Average (level 5 vs 0): 0.963 | LC3A.B.R.C Norm_5 Average (level 5 vs 0): 1.012 | LCN2.R.V Norm_5 Average (level 5 vs 0): 1.298 | LDHA.R.C Norm_5 Average (level 5 vs 0): 1.102 | LRP6_pS1490.R.V Norm_5 Average (level 5 vs 0): 1.046 | Lasu1.R.V Norm_5 Average (level 5 vs 0): 0.972 | Lck.R.V Norm_5 Average (level 5 vs 0): 1.010 | Lyn.R.V Norm_5 Average (level 5 vs 0): 0.844 | MAPK_pT202_Y204.R.C Norm_5 Average (level 5 vs 0): 0.869 | MCT4.R.V Norm_5 Average (level 5 vs 0): 1.048 | MDM2_pS166.R.V Norm_5 Average (level 5 vs 0): 1.023 | MEK1.R.V Norm_5 Average (level 5 vs 0): 1.023 | MEK1_pS217_S221.R.V Norm_5 Average (level 5 vs 0): 0.982 | MERIT40.R.C Norm_5 Average (level 5 vs 0): 0.989 | METTL3.R.V Norm_5 Average (level 5 vs 0): 0.986 | MIF.R.C Norm_5 Average (level 5 vs 0): 0.948 | MIG6.R.V Norm_5 Average (level 5 vs 0): 0.939 | MITF.R.V Norm_5 Average (level 5 vs 0): 1.020 | MLH1.M.V Norm_5 Average (level 5 vs 0): 0.926 | MLKL.R.V Norm_5 Average (level 5 vs 0): 0.945 | MMP2.R.V Norm_5 Average (level 5 vs 0): 0.946 | MR1.M.C Norm_5 Average (level 5 vs 0): 0.994 | MRAP.R.C Norm_5 Average (level 5 vs 0): 1.051 | MSH2.R.C Norm_5 Average (level 5 vs 0): 0.954 | MSH6.R.C Norm_5 Average (level 5 vs 0): 1.056 | MSI2.R.C Norm_5 Average (level 5 vs 0): 1.081 | MTCO1.M.V Norm_5 Average (level 5 vs 0): 1.081 | MTSS1.M.C Norm_5 Average (level 5 vs 0): 0.950 | Mcl.1.R.V Norm_5 Average (level 5 vs 0): 0.960 | MelanA.R.C Norm_5 Average (level 5 vs 0): 1.007 | Melanoma.gp100.R.C Norm_5 Average (level 5 vs 0): 1.060 | Merlin.R.C Norm_5 Average (level 5 vs 0): 1.018 | Midkine.R.V Norm_5 Average (level 5 vs 0): 0.932 | Mitofusin.1.R.V Norm_5 Average (level 5 vs 0): 1.025 | Mnk1.R.V Norm_5 Average (level 5 vs 0): 1.012 | mTOR.R.V Norm_5 Average (level 5 vs 0): 1.033 | mTOR_pS2448.R.C Norm_5 Average (level 5 vs 0): 1.080 | HLA.DQA1.R.V Norm_5 (level 5 vs 0, replicates): 0.839 and 1.026 and 0.858 | HLA.DR.DP.DQ.DX.R.C Norm_5 (level 5 vs 0, replicates): 0.915 and 1.122 and 0.946 | HMHA1.R.V Norm_5 (level 5 vs 0, replicates): 1.034 and 1.050 and 1.124 | HNRNPK.R.V Norm_5 (level 5 vs 0, replicates): 0.924 and 0.922 and 0.995 | HSP27.M.C Norm_5 (level 5 vs 0, replicates): 0.955 and 1.006 and 0.835 | HSP27_pS82.R.V Norm_5 (level 5 vs 0, replicates): 0.966 and 0.991 and 1.118 | HSP60.R.V Norm_5 (level 5 vs 0, replicates): 1.007 and 0.973 | HSP70.R.C Norm_5 (level 5 vs 0, replicates): 1.007 and 1.047 and 1.051 | Hexokinase.I.R.C Norm_5 (level 5 vs 0, replicates): 1.009 and 1.149 | Hexokinase.II.R.V Norm_5 (level 5 vs 0, replicates): 1.156 and 1.123 and 1.110 | Hif.1αR.C Norm_5 (level 5 vs 0, replicates): 1.356 and 1.081 and 1.170 | Histone.H3.R.V Norm_5 (level 5 vs 0, replicates): 1.165 and 1.542 and 0.488 | Histone.H3_pS10.R.V Norm_5 (level 5 vs 0, replicates): 0.733 and 1.032 and 0.592 | IDO.R.C Norm_5 (level 5 vs 0, replicates): 1.121 and 0.959 and 0.966 | IGF1R_pY1135_Y1136.R.V Norm_5 (level 5 vs 0, replicates): 0.933 and 1.035 | IGFBP2.R.V Norm_5 (level 5 vs 0, replicates): 0.940 and 1.033 and 1.113 | IGFBP3.M.V Norm_5 (level 5 vs 0, replicates): 0.833 and 0.934 | IGFRb.R.C Norm_5 (level 5 vs 0, replicates): 1.063 and 1.065 and 1.126 | IL.6.R.C Norm_5 (level 5 vs 0, replicates): 1.051 and 0.961 and 1.033 | IMP3.R.C Norm_5 (level 5 vs 0, replicates): 0.861 and 0.973 and 1.018
